How the values were obtained:
[1] = system: Rat Peripheral Blood Lymphocyte Count; test: Measurement of rat peripheral blood lymphocyte count (relative count and ID50) after oral administration; type: in vivo; conditions: LEW rats; for Lymphocyte Count (Relative Value Based on a value of 100% for Normal Control Group) (%): blood collected 3 hours after administration, dose not given; for ID50 of rat peripheral blood lymphocyte count: dosage giving 50% inhibition rate of lymphocyte count
Experimental: Measurement of Rat Peripheral Blood Lymphocyte Count
• (1) LEW rats (males, age 5 weeks, Japan Charles River) were used in groups of 5 animals per group. • (2) Administration of Compounds
The compounds were suspended in 1% tragacanth liquid (solvent). The suspended compounds were orally administered to the rats using a gastric tube in a dose of 5 mL per kg of body weight. Furthermore, the solvent was administered instead of the suspended compounds to a normal control group. • (3) Measurement of Peripheral Blood Lymphocyte Count
Blood samples were collected from the descending vena cava under ether anesthesia 3 hours after administration of the solvent or suspended compounds, and then transferred to tubes containing EDTA.
The absolute lymphocyte counts were measured for the collected blood samples using a hematology testing device. Lymphocyte count lowering activity of the test compounds was calculated as a relative value (%) based on a value of 100% for the lymphocyte count of the normal control group.
Measurement of ID50 of Rat Peripheral Blood Lymphocyte Count (mg/kg)
Inhibition rate (%) ={1-(lymphocyte count of compound dose group/lymphocyte count of solvent dose group)}×100 The dosage of the compound that yielded a value of 50% for the inhibition rate was calculated as the ID50 value.

[2] = Rat pharmacokinetics (dosage: 1 mg/kg), blood compound concentrations; type: in vivo; conditions: male, whole blood, po, LEWIS rats, 1 mg/kg directly into the stomach; for AUC(0-t): read-out: AUC (0–24 h); for half-life: read-out: T½ (converted)
Experimental: Rat Pharmacokinetics (dosage: 1 mg/kg)
• (1) LEWIS rats (males, age 6 weeks, Japan Charles River) were used after acclimating for 1 week. 1 to 3 rats were used for each compound. • (2) Administration of Compounds
The compounds were dissolved in an aqueous physiological saline solution containing 4% (w/v) sulfobutyl ether β-cyclodextrin. The rats were administered the dissolved compounds directly into the stomach using a metal gastric tube in a dose of 2 mL per kg of body weight. • (3) Measurement of Blood Compound Concentrations
Blood samples were collected at 0.1 mL/animal/collection from the jugular vein using heparin as anticoagulant under ether anesthesia at predetermined times after administering the compounds. The blood samples were promptly treated with methanol after collection, and were placed in frozen storage until the time of measurement treatment. After treating the resulting blood samples by solid phase extraction, blood compound concentrations were measured with a high-performance liquid chromatograph-quadropole mass spectrometer. Various pharmacokinetic parameters were then calculated using pharmacokinetics analysis software (Winnonlin Professional) from the resulting blood concentrations.

| SMILES | Lymphocyte Count (Relative Value Based on a value of 100% for Normal Control Group) (%) [1] [%] | ID50 of rat peripheral blood lymphocyte count [1] [mg/kg] | Cmax [2] [ng/mL] | AUC(0-t) [2] [ng·h/mL] | half-life [2] [h] |
| --- | --- | --- | --- | --- | --- |
| Cn1c(CC[C@@](C)(N)CO)ccc1C(=O)CCCc1ccccc1 [Comparative Compound 2, reference compound] | 31 | 0.78 |  |  |  |
| Cc1ccc(CCCC(=O)c2ccc(CC[C@@](C)(N)CO)n2C)cc1.Cl [Example 1, (2R) -2-Amino-2-methyl-4-{1-methyl-5-[4-(4-methylphenyl)butanoyl]pyrrol-2-yl}butan-1-ol hydrochloride] | 8 | 0.21 | 19.4 | 288 | 15.6 |
| Cc1ccc(CCCC(=O)c2ccc(CC[C@@](C)(N)CO)n2C)cc1C.Cl [Example 2, (2R)-2-Amino-2-methyl-4-{1-methyl-5-[4-(3,4-dimethylphenyl)butanoyl]pyrrol-2-yl}butan-1-ol hydrochloride] |  |  | 8.4 | 123 | 8.5 |
| CC(N)(CO)CCc1ccc(C(=O)CCCCc2ccccc2)s1 (centres unmarked) [Comparative Compound 1, reference compound] | 30 |  |  |  |  |
| Cc1ccc(CCCC(=O)c2ccc(CC[C@@](C)(N)CO)n2C)cc1C.Cl [Example 2] |  | 0.42 |  |  |  |
| COc1ccc(CCCC(=O)c2ccc(CC[C@@](C)(N)CO)n2C)cc1C.Cl [Example 11, (2R)-2-Amino-2-methyl-4-{1-methyl-5-[4-(3-methyl-4-methoxyphenyl)butanoyl]pyrrol-2-yl}butan-1-ol hydrochloride] | 11 | 0.39 | 5.38 | 71.7 | 6.04 |

From patent US7910617B2 (Sankyo Company, Limited, priority 2004, dated 2011)
